The values that follow are results of earlier work, collected in US8937081B2, “Statin bioavailability enhancement delivery composition” (PruGen IP Holdings, Inc., priority 2011, dated 2015).

The conditions of series [1]: among the marketed statins.
Series [2] deals with hepatocytes. The settings on record: in hepatocytes.

Regarding `COCc1c(C(C)C)nc(C(C)C)c(/C=C/[C@@H](O)C[C@@H](O)CC(=O)O)c1-c1ccc(F)cc1` [cerivastatin], in series [1], the “percentage of serious adverse effects” value is recorded as “largest percentage of serious adverse effects”.
As for `CC(C)c1nc(N(C)S(C)(=O)=O)nc(-c2ccc(F)cc2)c1/C=C/[C@@H](O)C[C@@H](O)CC(=O)O` [rosuvastatin], the IC50 entry in series [2] was “low”.
